Where two headings read alike, the source gives them in different places.
Tests used:
K-Ras G12S = biological target: T1, K-Ras G12S (Homo sapiens, UniProt P01116, G12S); test: PPI-HTRF assay, K-Ras G12S / SOS1 interaction; assay type: biochemical
T1 construct: made in house; host or cells: E. coli, e.g. BL21 (DE3)
In short: (§1)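 HTRF readout: 665/620 nm ratio (ex 337 nm) after ≥10 min incubation. Donor anti-GST-Eu(K) sits on GST-K-Ras (WT, G12D, G12V or G12S) and acceptor anti-6His-XL665 on His-hSOS1. Buffer ~5 mM HEPES pH 7.4, ~150 mM NaCl, ~1 mM DTT, 0.05% BSA, 0.0025% Igepal. Duplicate 6-point dilution, 10–0.01 μM, fitted to IC50.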

A549 cells = test: Ras cellular assay, cell proliferation A549; assay type: cell-based; conditions: Homo sapiens
Method: (§2) For example, this assay can be also used to assess selective growth inhibition of a mutant Ras protein relative to a wildtype, or relative to a different mutant Ras protein.
A549 (ATCC CRL-185) and LS123 (ATCC CRL-255) cell lines comprise a G12S mutation and can be used to assess Ras cellular signaling in vitro, e.g., in response to treatment with a compound described herein. A549 culture medium is prepared with RPMI-1640 and 10% heat-inactivated FBS. LS123 culture medium is prepared with RPMI-1640 and 10% heat-inactivated FBS. A CellTiter-Glo (CTG) luminescent based assay (Promega) is used to assess growth of the cells, as a measurement of the ability of the compounds herein to inhibit Ras signaling in the cells. The cells (e.g., 800 per well) are seeded in their respective culture medium in standard tissue culture-treated 384-well format plates (Falcon #08-772-116) or ultra-low attachment surface 384-well format plates (S-Bio #MS-9384WZ). The day after plating, cells are treated with a dilution series (e.g., a 10 point, 3-fold dilution series) of the compounds herein (e.g., approximately 40 μL final volume per well). Cell viability can be monitored (e.g., approximately 6 days later) according to the manufacturer's recommended instructions, where CellTiter-Glo reagent is added (e.g., approximately 10 μL), vigorously mixed, covered, and placed on a plate shaker (e.g., approximately for 20 min) to ensure sufficient cell lysis prior to assessment of luminescent signal. The IC50 values are determined using the four parameter fit. The resulting IC50 value is a measurement of the ability of the test compound to reduce cell growth of Ras-driven cells (e.g., tumor cell lines) in vitro and/or in vivo.

wildtype K-Ras = biological target: T2, wildtype K-Ras (Homo sapiens, UniProt P01116); test: PPI-HTRF assay, wildtype K-Ras / SOS1 interaction; assay type: biochemical
T2 construct: made in house; host or cells: E. coli, e.g. BL21 (DE3)
In short: as §1

K-Ras G12V = biological target: T3, K-Ras G12V (Homo sapiens, UniProt P01116, G12V); test: PPI-HTRF assay, K-Ras G12V / SOS1 interaction; assay type: biochemical
T3 construct: made in house; host or cells: E. coli, e.g. BL21 (DE3)
In short: as §1

SW620 cells = test: Ras cellular assay, cell proliferation SW620; assay type: cell-based; conditions: Homo sapiens, SW-620
Text: as §2

GP2D cells = test: Ras cellular assay, cell proliferation GP2D; assay type: cell-based
In short: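 GP2D cells (G12D Ras mutant) seeded (e.g., 800/well) and treated the next day with a dilution series (e.g., 9-point, 3-fold). After approximately 5 days, viability measured by CellTiter-Glo luminescence; IC50 from four-parameter fit.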

K-Ras G12D = biological target: T4, K-Ras G12D (Homo sapiens, UniProt P01116, G12D); test: PPI-HTRF assay, K-Ras G12D / SOS1 interaction; assay type: biochemical
T4 construct: made in house; host or cells: E. coli, e.g. BL21 (DE3)
In short: as §1

[1] = read-out: PPI-HTRF-5 nM (K-Ras G12S IC50)
[2] = HTRF, K-Ras wt, read-out: PPI-HTRF-5 nM (K-Ras wt IC50)
[3] = HTRF, K-Ras G12V, read-out: PPI-HTRF-5 nM (K-Ras G12V IC50)
[4] = HTRF, K-Ras G12D, read-out: PPI-HTRF-5 nM (K-Ras G12D IC50)

T4 sequence (P01116 1-188 isoform P01116-2 G12D): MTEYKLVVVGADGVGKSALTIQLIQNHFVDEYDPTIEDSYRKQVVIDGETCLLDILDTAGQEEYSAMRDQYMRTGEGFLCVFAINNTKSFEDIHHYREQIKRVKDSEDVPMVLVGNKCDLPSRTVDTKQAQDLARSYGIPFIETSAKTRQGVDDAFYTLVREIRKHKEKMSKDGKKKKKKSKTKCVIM
T2 sequence (P01116 1-188 isoform P01116-2): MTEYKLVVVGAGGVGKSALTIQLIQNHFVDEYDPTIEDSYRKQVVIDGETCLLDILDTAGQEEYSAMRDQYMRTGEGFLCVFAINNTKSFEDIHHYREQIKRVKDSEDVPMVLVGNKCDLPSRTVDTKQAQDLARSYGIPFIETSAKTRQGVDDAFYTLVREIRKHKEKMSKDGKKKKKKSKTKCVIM
T3 sequence (P01116 1-188 isoform P01116-2 G12V): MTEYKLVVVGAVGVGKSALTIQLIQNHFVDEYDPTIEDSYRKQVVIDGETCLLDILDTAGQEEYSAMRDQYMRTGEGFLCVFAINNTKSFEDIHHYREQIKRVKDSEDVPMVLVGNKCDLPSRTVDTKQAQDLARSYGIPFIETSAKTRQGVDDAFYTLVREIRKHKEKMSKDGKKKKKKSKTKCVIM
T1 sequence (P01116 1-188 isoform P01116-2 G12S): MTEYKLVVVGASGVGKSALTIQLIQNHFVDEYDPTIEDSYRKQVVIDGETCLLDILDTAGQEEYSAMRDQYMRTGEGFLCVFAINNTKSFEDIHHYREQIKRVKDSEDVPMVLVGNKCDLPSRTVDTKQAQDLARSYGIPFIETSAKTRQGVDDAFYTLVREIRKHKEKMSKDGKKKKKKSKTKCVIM

IC50 (K-Ras G12S; [1]) [µM] | IC50 (A549 cells) [µM] | IC50 (wildtype K-Ras; [2]) [µM] | IC50 (K-Ras G12V; [3]) [µM] | IC50 (SW620 cells) [µM] | IC50 (K-Ras G12D; [4]) [µM] | Structure (SMILES) | IC50 (GP2D cells) [µM] | IC50 (K-Ras G12S; PPI-HTRF-5 nM (K-Ras G12S IC50)) [µM] | IC50 (wildtype K-Ras) [µM] | IC50 (K-Ras G12V) [µM] | IC50 (K-Ras G12D) [µM]
< 5 | > 5 | < 5 | < 5 | < 5 | < 5 | N#Cc1c(N)sc2c(F)ccc(-c3c(Cl)c4c5c(nc(OC[C@@]67CCCN6C[C@H](F)C7)nc5c3F)N3CC[C@@H]3CO4)c12 [compound 139, 2-amino-4-((11aR)-9-chloro-7-fluoro-5-(((2R,7aS)-2-fluorotetrahydro-1H-pyrrolizin-7a(5H)-yl)methoxy)-1,2,11,11a-tetrahydroazeto[2′,1′:3,4][1,4]oxazepino [5,6,7-de]quinazolin-8-yl)-7-fluorobenzo[b]thiophene-3-carbonitrile] | < 5 |  |  |  | 
< 5 | < 5 | < 5 | < 5 | < 5 | < 5 | N#Cc1c(N)sc2c(F)ccc(-c3c(Cl)c4c5c(nc(OC[C@@]67CCCN6C[C@H](F)C7)nc5c3F)N3CCCC3CO4)c12 (stereo partly drawn) [compound 137, 2-amino-4-(6-chloro-4-fluoro-2-(((2R,7aS)-2-fluorotetrahydro-1H-pyrrolizin-7a(5H)-yl)methoxy)-8a,9,10,11-tetrahydro-8H-pyrrolo[2′,1′:3,4][1,4]oxazepino[5,6,7-de]quinazolin-5-yl)-7-fluorobenzo[b]thiophene-3-carbonitrile] | < 5 |  |  |  | 
< 5 | > 5 | < 5 | < 5 | < 5 | < 5 | N#Cc1c(N)sc2c(F)ccc(-c3c(Cl)c4c5c(nc(OC[C@@]67CCCN6C[C@H](F)C7)nc5c3F)N3CC(OC(F)F)CCC3CO4)c12 (single isomer, unassigned) [compound 148] | < 5 |  |  |  | 
< 5 | < 5 | < 5 | < 5 | < 5 | < 5 | COCC1CCC2COc3c(Cl)c(-c4ccc(F)c5sc(N)c(C#N)c45)c(F)c4nc(OCC56CCCN5C[C@H](F)C6)nc(c34)N2C1 (stereo partly drawn) [compound 121, 2-amino-4-(6-chloro-4-fluoro-2-(((2R)-2-fluorotetrahydro-1H-pyrrolizin-7a(5H)-yl)methoxy)-11-(methoxymethyl)-8,8a,9,10,11,12-hexahydropyrido[2′,1′:3,4][1,4]oxazepino [5,6,7-de]quinazolin-5-yl)-7-fluorobenzo[b]thiophene-3-carbonitrile] | < 5 |  |  |  | 
< 5 | < 5 | < 5 | < 5 | < 5 | < 5 | N#Cc1c(N)sc2c(F)ccc(-c3c(Cl)c4c5c(nc(OC[C@@]67CCCN6C[C@H](F)C7)nc5c3F)N3CC[C@@H]3CCO4)c12 [compound 167, 2-amino-4-((12aR)-9-chloro-7-fluoro-5-(((2R,7aS)-2-fluorotetrahydro-1H-pyrrolizin-7a(5H)-yl)methoxy)-1,11,12,12a-tetrahydro-2H-azeto[11,2′:5,6][1,5]oxazocino[4,3,2-de]quinazolin-8-yl)-7-fluorobenzo[b]thiophene-3-carbonitrile] | < 5 |  |  |  | 
< 5 | < 5 | < 5 | < 5 | < 5 | < 5 | N#Cc1c(N)sc2c(F)ccc(-c3c(Cl)c4c5c(nc(OC[C@@]67CCCN6C[C@H](F)C7)nc5c3F)N3CCCC[C@@H]3CCO4)c12 [compound 196, 2-amino-4-((6aR)-3-chloro-1-fluoro-13-(((2R,7aS)-2-fluorotetrahydro-1H-pyrrolizin-7a(5H)-yl)methoxy)-6,6a,7,8,9,10-hexahydro-5H-pyrido[11,2′:5,6][1,5]oxazocino[4,3,2-de]quinazolin-2-yl)-7-fluorobenzo[b]thiophene-3-carbonitrile] | < 5 |  |  |  | 
< 5 | > 5 | < 5 | < 5 | < 5 | < 5 | CN1c2nc(OC[C@@]34CCCN3C[C@H](F)C4)nc3c(F)c(-c4ccc(F)c5sc(N)c(C#N)c45)c(Cl)c(c23)OCC2CN(C(=O)C(F)F)CC21 (stereo partly drawn) [compound 120, 2-amino-4-(6-chloro-10-(2,2-difluoroacetyl)-4-fluoro-2-(((2R,7aS)-2-fluorotetrahydro-1H-pyrrolizin-7a(5H)-yl)methoxy)-12-methyl-8a,9,10,11,11a,12-hexahydro-8H-pyrrolo[3′,4′:6,7][1,5]oxazocino[4,3,2-de]quinazolin-5-yl)-7-fluorobenzo[b]thiophene-3-carbonitrile] | < 5 |  |  |  | 
< 5 | > 5 | < 5 | < 5 | > 5 | < 5 | N#Cc1c(N)sc2c(F)ccc(-c3c(Cl)c4c5c(nc(OC[C@@]67CCCN6C[C@H](F)C7)nc5c3F)N(CCC3CNC3)C3COCC3CO4)c12 (stereo partly drawn) [compound 171, 2-amino-4-(12-(2-(azetidin-3-yl)ethyl)-6-chloro-4-fluoro-2-(((2R,7aS)-2-fluorotetrahydro-1H-pyrrolizin-7a(5H)-yl)methoxy)-8a,9,11a,12-tetrahydro-8H,11H-furo[3′,4′:6,7][1,5]oxazocino[4,3,2-de]quinazolin-5-yl)-7-fluorobenzo[b]thiophene-3-carbonitrile] | < 5 |  |  |  | 
< 5 | < 5 | < 5 | < 5 | < 5 | < 5 | N#Cc1c(N)sc2c(F)ccc(-c3c(Cl)c4c5c(nc(OC[C@@]67CCCN6C[C@H](F)C7)nc5c3F)N3CCC3CO4)c12 (stereo partly drawn) [compound 178, 2-amino-4-(6-chloro-4-fluoro-2-(((2R,7aS)-2-fluorotetrahydro-1H-pyrrolizin-7a(5H)-yl)methoxy)-8,8a,9,10-tetrahydroazeto[2′,1′:3,4][1,4]oxazepino [5,6,7-de]quinazolin-5-yl)-7-fluorobenzo[b]thiophene-3-carbonitrile] | < 5 |  |  |  | 
< 5 | < 5 | < 5 | < 5 | < 5 | < 5 | CCN1c2nc(OC[C@@]34CCCN3C[C@H](F)C4)nc3c(F)c(-c4ccc(F)c5sc(N)c(C#N)c45)c(Cl)c(c23)OCC2COCC21 (stereo partly drawn) [compound 186, 2-amino-4-(6-chloro-12-ethyl-4-fluoro-2-(((2R,7aS)-2-fluorotetrahydro-1H-pyrrolizin-7a(5H)-yl)methoxy)-8a,9,11a,12-tetrahydro-8H,11H-furo[3′,4′:6,7][1,5]oxazocino[4,3,2-de]quinazolin-5-yl)-7-fluorobenzo[b]thiophene-3-carbonitrile] | < 5 |  |  |  | 

Structure (SMILES) | IC50 (K-Ras G12S; [1]) [µM] | IC50 (A549 cells) [µM] | IC50 (wildtype K-Ras; [2]) [µM] | IC50 (K-Ras G12V; [3]) [µM] | IC50 (SW620 cells) [µM] | IC50 (K-Ras G12D; [4]) [µM] | IC50 (GP2D cells) [µM] | IC50 (K-Ras G12S; PPI-HTRF-5 nM (K-Ras G12S IC50)) [µM] | IC50 (wildtype K-Ras) [µM] | IC50 (K-Ras G12V) [µM] | IC50 (K-Ras G12D) [µM]
CN1c2nc(OC[C@@]34CCCN3C[C@H](F)C4)nc3c(F)c(-c4ccc(F)c5sc(N)c(C#N)c45)c(Cl)c(c23)OC2CN(C(=O)C3N[C@H]3C3CC3)CC21 (stereo partly drawn) [compound 108, 2-amino-4-(6-chloro-9-((3S)-3-cyclopropylaziridine-2-carbonyl)-4-fluoro-2-(((2R,7aS)-2-fluorotetrahydro-1H-pyrrolizin-7a(5H)-yl)methoxy)-11-methyl-7a,8,9,10,10a,11-hexahydropyrrolo[3′,4′:2,3][1,4]oxazepino [5,6,7-de]quinazolin-5-yl)-7-fluorobenzo[b]thiophene-3-carbonitrile] |  | > 5 |  |  | > 5 |  | < 5 | < 5 | < 5 | < 5 | < 5

— patent US12059425B2, “Heterocyclic compounds and uses thereof” (Kumquat Biosciences Inc., priority 2022, dated 2024)
